Assay results: PubChem BioAssay (NCI)
Where “and” joins values, the source holds several entries; their conditions need not be identical. Equal entries are not always repeated.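 Tested at 5 concentrations; 48 h exposure; 96-well plates; endpoints linearly interpolated, else capped at highest concentration. GI50 marks 50% less growth. TGI denotes the concentration required for complete inhibition of growth.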

How the values were obtained:
Experiment in all cases: NCI-60 cell line screen, 48 h
CCRF-CEM leukemia = test system: CCRF-CEM leukemia
DU-145 prostate = test system: DU-145 prostate
HL-60(TB) leukemia = test system: HL-60(TB) leukemia
MCF7 breast = test system: MCF7 breast
MDA-MB-231 breast = test system: MDA-MB-231 breast
MOLT-4 leukemia = test system: MOLT-4 leukemia
SF-539 CNS = test system: SF-539 CNS
SK-MEL-5 melanoma = test system: SK-MEL-5 melanoma
SR leukemia = test system: SR leukemia
UACC-257 melanoma = test system: UACC-257 melanoma

Row | SMILES | GI50 (CCRF-CEM leukemia) | TGI (CCRF-CEM leukemia) | GI50 (DU-145 prostate) | TGI (DU-145 prostate) | GI50 (HL-60(TB) leukemia) | TGI (HL-60(TB) leukemia) | GI50 (MCF7 breast) | TGI (MCF7 breast) | GI50 (MDA-MB-231 breast) | TGI (MDA-MB-231 breast) | GI50 (MOLT-4 leukemia) | TGI (MOLT-4 leukemia) | GI50 (SF-539 CNS) | TGI (SF-539 CNS) | GI50 (SK-MEL-5 melanoma) | TGI (SK-MEL-5 melanoma) | GI50 (SR leukemia) | GI50 (UACC-257 melanoma) | TGI (UACC-257 melanoma) | TGI (SR leukemia)
1 | c1cc(C2CCCCC2)ccc1-c1cnc2nonc2n1 | 0.408 µM | > 93.8 µM | 1.35 µM | 3.02 µM | 0.318 µM | 1.52 µM | 0.393 µM | 3.21 µM | 1.33 µM | 4.01 µM | 0.393 µM | > 56.5 µM | 0.548 µM | 1.87 µM | 1.29 µM | 2.62 µM | 0.348 µM | 1.28 µM | 3.9 µM | –
2 | CSc1ccc(NC(=O)Nc2cc(C)ccn2)cc1 | – | > 100 µM | – | > 100 µM | – | > 100 µM | – | > 100 µM | – | > 100 µM | – | > 100 µM | – | > 100 µM | – | > 100 µM | – | – | > 100 µM | > 100 µM
3 | O=C(N/N=C/c1cc(Cl)ccc1O)c1ccccc1Nc1ccnc(C(F)(F)F)c1 | 0.127 µM | 1.51 µM | 0.362 µM | 18.8 µM | 0.225 µM | 0.937 µM | 0.351 µM | 30.3 µM | 0.54 µM | 21.1 µM | 0.241 µM | 6.27 µM | 0.721 µM | 8.19 µM | 0.57 µM | 5.33 µM | 0.246 µM | 1.43 µM | 7.54 µM | 1.76 µM
4 | C(=C\c1ccncc1)/c1ccncc1 | > 100 µM | > 100 µM | > 100 µM | > 100 µM | > 100 µM | > 100 µM | > 100 µM | > 100 µM | > 100 µM | > 100 µM | > 100 µM | > 100 µM | > 100 µM | > 100 µM | > 100 µM | > 100 µM | > 100 µM | > 100 µM | > 100 µM | > 100 µM
5 | Oc1ccc(Cl)cc1Sc1cc(Cl)ccc1O | 2.59 µM | 55 µM and 12.8 µM | 3.83 µM | 30.5 µM and 13.7 µM | 3.19 µM | 37.3 µM and 7.52 µM | 3.33 µM | 34.5 µM and 10.7 µM | 2.72 µM | 31.7 µM and 7.71 µM | 3.77 µM | > 100 µM and 24.7 µM | 3.14 µM | 37.2 µM and 11.2 µM | 1.92 µM | 15.7 µM and 4.06 µM | 3.53 µM | 2.83 µM | 19.3 µM and 6.91 µM | 51.6 µM and 12.2 µM
6 | CN(C)CCNC(=O)c1cccc2c1Oc1cccc([N+](=O)[O-])c1O2 | – | 89.8 µM | – | 31.5 µM | – | 51.7 µM | – | 40.6 µM | – | 20.5 µM | – | 27.1 µM | – | 40.1 µM | – | 33.2 µM | – | – | 35.5 µM | 76.1 µM
7 | C[C@@]1(C(=O)O)CCC[C@]2(C)C1CC[C@]13C[C@@](O)(CO)[C@](O)(CC[C@]12O)C3 (some centres undefined) | > 100 µM | > 100 µM | > 100 µM | > 100 µM | > 100 µM | > 100 µM | > 100 µM | > 100 µM | > 100 µM | > 100 µM | > 100 µM | > 100 µM | > 100 µM | > 100 µM | > 100 µM | > 100 µM | > 100 µM | > 100 µM | > 100 µM | > 100 µM
8 | CCCCSc1nc(N)c2cn[nH]c2n1 | 23.6 µM | 68 µM | 23.9 µM | 72 µM | 23.6 µM | > 100 µM | 23.4 µM | > 62.5 µM | 15.5 µM | 35.2 µM | 26.3 µM | > 78 µM | 18.3 µM | 39.1 µM | 15.5 µM | 33.2 µM | 14.1 µM | 19.4 µM | 35 µM | 36.4 µM
9 | COc1ccc(/C=C2\COc3ccc(O)c(O)c3C2=O)cc1OC | 0.377 µM | 12.1 µM | 2.22 µM | 11.4 µM | 0.44 µM | 5.29 µM | 0.682 µM | > 100 µM | 1.48 µM | 5.55 µM | 1.05 µM | 9.13 µM | 1.57 µM | 3.03 µM | 1.79 µM | 3.4 µM | 0.537 µM | 1.75 µM | 4.93 µM | 10.7 µM
10 | Cc1c(Cl)cccc1NC(=O)c1sc2nc3c(cc2c1N)C(=O)CCC3 | 0.108 µM | > 100 µM | 0.124 µM | 47.3 µM | 0.081 µM | 0.769 µM | 0.0452 µM | > 100 µM | 0.138 µM | 16.5 µM | 0.466 µM | > 100 µM | 0.0353 µM | 0.19 µM | 0.13 µM | 2.78 µM | 0.0725 µM | – | – | > 100 µM
11 | C[C@@H](CS[As](C)C)C(=O)N1CCC[C@H]1C(=O)O | 0.142 µM | 0.643 µM | 0.19 µM | 1.68 µM | 0.0994 µM | – | 0.249 µM | 2.03 µM | 0.226 µM | 1.35 µM | 0.0933 µM | 3.69 µM | 0.131 µM | 1.41 µM | 0.152 µM | 0.436 µM | 0.0553 µM | 1.45 µM | 7.8 µM | 0.272 µM
12 | CCN(CC)S(=O)(=O)c1cccc(-c2ccc3c(NC(=O)C4CC4)n[nH]c3c2)c1 | 1.84 µM | > 6.25 µM | 2.26 µM | > 6.25 µM | 2.17 µM | > 6.25 µM | 1.19 µM | > 6.25 µM | 2.84 µM | > 6.25 µM | 1.75 µM | > 6.25 µM | 1.47 µM | 5.6 µM | 0.986 µM | 3.58 µM | 0.259 µM | 2.26 µM | > 6.25 µM | > 6.25 µM
13 | Cc1ccc(N=Nc2c(O)ccc3n[nH]nc23)cc1 | 4.13 µM | 55.6 µM | 16.1 µM | 44.9 µM | 7.32 µM | 57.8 µM | 9.25 µM | 97.5 µM | 13 µM | > 100 µM | 2.89 µM | 12.8 µM | 15.8 µM | > 100 µM | 3.19 µM | 13.2 µM | 14 µM | 5.09 µM | 39.5 µM | 64.8 µM
14 | C=C1C(=O)O[C@@H]2CC(CO)=C([C@@H](C)CCCO)[C@@H](OC(=O)/C(C)=C\C)[C@H]12 | – | 10 µM | – | 27.7 µM | – | 4.86 µM | – | 23.4 µM | – | 57.2 µM | – | 33.4 µM | – | > 71.3 µM | – | 34.6 µM | – | – | 38.1 µM | 8.22 µM
15 | O=C(NNc1ccccc1)c1ccc(Cl)c(Cl)c1 | – | > 100 µM | – | > 100 µM | – | 70.4 µM | – | > 100 µM | – | > 100 µM | – | > 100 µM | – | 0.133 µM | – | 41.6 µM | – | – | 13.9 µM | > 100 µM
16 | [Cl][Hg][c]1ccc2ccccc2c1 | 0.924 µM | 9.32 µM | 4.97 µM | 15.3 µM | 0.655 µM | 2.36 µM | 2.07 µM | 5.61 µM | 1.74 µM | 3.5 µM | 2.01 µM | 15.2 µM | 2.02 µM | 4.73 µM | 1.25 µM | 3.13 µM | 0.257 µM | 1.97 µM | 4.33 µM | 5.86 µM
17 | CC(C)c1[nH]nc2c(NCc3ccc(-c4ccccn4)cc3)nc(SCCN)nc12 | 0.00978 µM | 15.1 µM | 0.0389 µM and 0.0416 µM | 11.8 µM | 0.00469 µM | 0.0443 µM | 0.00401 µM | 2.28 µM and 10.2 µM | 0.00492 µM | 0.205 µM and 0.212 µM | 0.00505 µM | 0.169 µM and 0.102 µM | 0.0314 µM and 0.0272 µM | 0.0979 µM and 0.0811 µM | – | – | 0.0126 µM | 0.0414 µM and 0.0235 µM | 0.0875 µM | 2.03 µM
18 | Cc1cc(N(CCC#N)CCC#N)ccc1/C=C(\NC(=O)/C=C/c1ccccc1)C(=O)Nc1ccc(Cl)cc1 | – | > 100 µM | – | > 100 µM | – | > 100 µM | – | > 100 µM | – | > 100 µM | – | > 100 µM | – | > 100 µM | – | 5.95 µM | – | – | > 100 µM | > 100 µM
19 | Cc1nn(Cc2ccccc2)cc1C(=O)Nc1sc2c(c1C(N)=O)CCC(=O)C2 | 0.789 µM | 17.1 µM | 3.73 µM | > 100 µM | – | – | 2.48 µM | 7.59 µM | 2 µM | 4.86 µM | 2.62 µM | 9.27 µM | 1.36 µM | 3.02 µM | 1.83 µM | 3.33 µM | 1.41 µM | 2.16 µM | 6.24 µM | 8.81 µM
20 | COc1c(-c2ccc3c(c2)OCO3)oc2cc(O)cc(O)c2c1=O | – | > 100 µM | – | > 100 µM | – | > 100 µM | – | 75.3 µM | – | > 100 µM | – | > 100 µM | – | > 100 µM | – | > 100 µM | – | – | > 100 µM | > 100 µM
21 | CC(=O)c1ccc2c3c1[C@H]1O[C@H]1c1cccc(c1-3)[C@@H]1O[C@H]21 | – | 4.2 µM | – | 7.19 µM | – | 5.75 µM | – | > 33.5 µM | – | 4.44 µM | – | > 32.6 µM | – | – | – | 5.39 µM | – | – | 8.1 µM | > 100 µM
22 | O=C(N=Nc1c(Cl)c(O)c2ccccc2c1O)C(=O)Nc1cccc(C(F)(F)F)c1 | 2.84 µM | 8.77 µM | 2.73 µM | 5.15 µM | 3.35 µM | 10.2 µM | 1.84 µM | 4.31 µM | 1.6 µM | 12.9 µM | 2.93 µM | 8.88 µM | 3.51 µM | 14.4 µM | 1.7 µM | 3.98 µM | 3.08 µM | – | – | 17.1 µM
